Laboratory results published in patent publication US4596802A, “Thiadiazole derivatives active on the central nervous system and pharmaceutical compositions” (Sanofi, priority 1984, dated 1986).

Experiments:
[1] = Acute toxicity, mortality within 24 hours, intraperitoneal; details: mouse, in vivo, ip, mice, dose of 300 mg/kg
Protocol: The products to be studied were administered intraperitoneally in increasing doses to groups of 10 mice (CD1, Charles River; 20±1 g).
From the results obtained, the 50% lethal dose, i.e. the dose causing the death of 50% of the animals, was determined for each of the products studied.

[2] = tested on: ptosis induced by reserpine; assay: Antagonism of the ptosis induced by reserpine; type: in vivo, female CD1 mice; details: Mus musculus, ip; mice, intraperitoneal; reserpine 2 mg/kg i.v. simultaneously; read at 1 hour; read-out: ED50 (dose which completely blocks the ptosis induced by reserpine in 50% of the animals)
Protocol: This test, described by GOURET et al. (Journal de Pharmacologie, Paris, 8, 333-350, 1977), was performed on female CD1 mice (Charles River) weighing 20±1 g. Reserpine causes ptosis 1 hour after intravenous administration; the majority of antidepressants oppose this ptosis. The following protocol was chosen. The substances to be studied were administered intraperitoneally and the reserpine was simultaneously administered intravenously at a dose of 2 mg/kg. […] This test was performed on groups of 10 mice; the results are expressed as ED50 (50% effective dose), i.e. the dose which completely blocks the ptosis induced by reserpine in 50% of the animals.

[3] = tested on: trembling induced by L-5-HTP; assay: Potentiation of the trembling induced by L-5-HTP; type: in vivo, female CD1 mice; details: Mus musculus, ip; mice, intraperitoneal, 1 hour before L-5-HTP 200 mg/kg i.p.; observed 20 minutes; read-out: ED50 (dose which induces trembling in 50% of the animals treated)
From the text: Its injection into mice causes a behavioral syndrome characterized in particular by violent trembling. Antidepressants which inhibit the recapture of serotonin or monoamine oxidase inhibitors (MAOI) potentiate this effect of […], 1959). The protocol described by […] (Biochem. Pharmacol., 2, 290-298, 1959) was used. […] The results are expressed as ED50, i.e. the dose which induces trembling in 50% of the animals treated.

dopaminergic receptors = assay: Rotation behavior, unilateral striatal lesion by 6-hydroxydopamine; type: in vivo, female CD1 mice; details: Mus musculus, ip; mice, intraperitoneal, 1 hour after administration, rotations over 2 minutes; read-out: MED (minimum dose necessary to cause a significant reduction in the number of ipsilateral rotations)
Protocol: This test is the one described by PROTAIS et al. (Journal de Pharmacologie,Paris, 7, 251-255, 1976). Female mice (Charles River, CD1) weighing from 25 to 30 g were subjected beforehand to a unilateral lesion of the striatum by the stereotaxic injection of 6-hydroxydopamine at a rate of 8 μg per animal. One week after this operation, the products were administered intraperitoneally to groups of 7 mice. 1 hour after administration of the product, the number of rotations was evaluated for 2 minutes. The rotations on the same side as the lesion were counted as positive and those on the opposite side as negative. The algebraic sum of the rotations for one group of treated animals was compared with that of the group of control animals which had only received the vehicle (aqueous solution of gum). In this test, stimulants of the dopaminergic receptors (apomorphine type) reduce the spontaneous rotations whereas indirect dopaminomimetic agents (amphetamine type) increase them. The results are expressed as MED (minimum effective dose), i.e. the minimum dose necessary to cause a significant reduction (Student's t-test) in the number of ipsilateral rotations spontaneously observed in the control animals.

Structure (SMILES) | mortality at 24 h [1] [%] | ED50 [2] [mg/kg] | ED50 [3] [mg/kg] | minimal effective dose (dopaminergic receptors) [mg/kg]
CN(C)CCNc1nnc(-c2ccccc2)s1 [Compound A, reference compound] | 70 | 32 |  | 
CCN(CC)CCNc1nnc(-c2ccccc2)s1 [Compound B, reference compound] | 90 | 43 |  | 
C1CCC(c2nnc(NCCN3CCOCC3)s2)C1 [SR 43057 A] |  | 23 |  | 
C1CCC(c2nnc(NCCN3CCOCC3)s2)CC1 [SR 43058, 2-(2-Morpholinoethylamino)-5-cyclohexyl-1,3,4-thiadiazole] |  | 22 | 17 | 
COc1ccc(-c2nnc(NCCN3CCOCC3)s2)cc1 [SR 43198, 2-(2-morpholinoethylamino)-5-(4-methoxyphenyl)-1,3,4-thiadiazole] |  |  | 7 | 
Cl.Cl.Oc1ccc(-c2nnc(NCCN3CCOCC3)s2)cc1 [SR 43202 A, 2-(2-Morpholinoethylamino)-5-(4-hydroxyphenyl)-1,3,4-thiadiazole dihydrochloride] |  |  |  | 0.1
c1ccc(-c2ccc(-c3nnc(NCCN4CCOCC4)s3)cc2)cc1 [SR 43294] |  |  |  | 0.1
COc1ccc(-c2nnc(NCCN3CCOCC3)s2)cc1OC [SR 43295, 2-(2-morpholinoethylamino)-5-(3,4-dimethoxyphenyl)-1,3,4-thiadiazole] |  |  |  | 0.1
Cl.Cl.Oc1ccc(-c2nnc(NCCN3CCOCC3)s2)cc1O [SR 43296 A, 2-(2-Morpholinoethylamino)-5-(3,4-dihydroxyphenyl)-1,3,4-thiadiazole dihydrochloride] |  |  |  | 0.1
O=[N+]([O-])c1ccc(-c2nnc(NCCN3CCOCC3)s2)cc1 [SR 43530] |  |  | 6.2 | 0.1
FC(F)(F)c1cccc(-c2nnc(NCCN3CCOCC3)s2)c1 [SR 43531 A] |  |  | 7.8 | 
FC(F)(F)c1ccc(-c2nnc(NCCN3CCOCC3)s2)cc1 [SR 43604] |  |  |  | 0.1
Cl.Cl.c1ccc(-c2nnc(NCCN3CCOCC3)s2)cc1 [SR 95311 A, 2-(2-Morpholinoethylamino)-5-phenyl-1,3,4-thiadiazole dihydrochloride] |  | 4.6 | 6 | 0.1
Clc1ccc(-c2nnc(NCCN3CCOCC3)s2)cc1 [SR 95340 A] |  | 8.8 | 3.6 | 
Clc1cccc(-c2nnc(NCCN3CCOCC3)s2)c1 [SR 95396 A] |  | 11.3 |  | 0.1
Clc1ccccc1-c1nnc(NCCN2CCOCC2)s1 [SR 95397 A] |  | 18 | 14.5 | 0.1
c1ccc2c(-c3nnc(NCCN4CCOCC4)s3)cccc2c1 [SR 95559 A] |  |  |  | 0.1
